This note sets out measurements from patent US20210196724A1, “BIARYL COMPOSITIONS AND METHODS FOR MODULATING A KINASE CASCADE” (Athenex, Inc., priority 2016, published 2021).

The subject of test [1] is JHH-5 cells. Briefly: CellTiter-Glo cell viability, JHH-5. It is filed as cell-based. Particulars: 72 h; for GI50: read-out: Absolute GI50; for pIC50: read-out: Absolute IC50. The method, then: (§1) The cell viability of 50 cancer cell lines was studied after treatment with Compound 121. Inhibition concentration values at 50% (IC50) were determined using CellTiter-Glo luminescent cell viability assay after incubation with different compound concentrations. GI50 values were determined according to the examples described above. Each cell line was treated with Compound 121, a standard chemotherapy drug as a reference control, and culture medium as a vehicle control.
(§2) All cells were cultured in media supplemented with 10-15% FBS at 37° C. in the presence of 5% CO2 and at 95% humidity. The culture medium was purchased from GIBCO or Sigma, USA. Cisplatin was chosen as the reference control and purchased from Hospira Australia Pty Ltd. The cell lines studied are presented in Table 5.
(§3) Cells were harvested during a logarithmic growth period and cell number count was determined using Count-star. Cell concentrations were adjusted to 4.44×10^4 cells/mL with respective culture medium. 90 μL of cell suspensions were added to two 96-well plates (plates A and B) with a final cell density of 4×10^3 cells/well.
(§4) 10 μL of culture medium was added to each well of plate A for TO reading. The plate was allowed to equilibrate at room temperature for approximately 30 min. 50 μL of CellTiter-Glo was added to each well and the contents were mixed for 5 min on an orbital shaker to induce cell lysis. The plate was allowed to incubate at room temperature for 20 min to stabilize luminescent signal.
(§5) 10 μM Compound 121 in media was serially diluted 3.16-fold to achieve 9 dose levels. Similarly, 100 μM reference control in media was serially diluted 3.16-fold to prepare reference control solutions. 10 μL drug solution and 10 μL of reference control was dispensed into each well in plate B.
(§6) Test plate B was incubated for 72 h in a humidified incubator at 37° C. in the presence of 5% CO2 and then subjected to CTG assay. The plate was allowed to equilibrate at room temperature for about 30 min. 50 μL of CellTiter-Glo was added to each well and the contents were mixed for 5 min on an orbital shaker to induce cell lysis. The plate was allowed to incubate at room temperature for 20 min to stabilize luminescent signal.
(§7) IC50 and GI50 values for each of the 50 cell lines are presented in Table 6 and were calculated based on the dose-response curves depicted in FIGS. 1-50. The dose-response curves were fitted using nonlinear regression model with a sigmoidal dose response. The formula for calculating survival rate was calculated by the formula:
(§8) Survival rate (%)=(LumTest article−LumMedium control)/(LumNone treated−LumMedium control)×100.
A general note: Cellular ATP, detected with luciferase, serves as a proxy for viable cell number.

Test [2] has as its system MES-SA/DX5 cells. Kind of test: CellTiter-Glo cell viability, MES-SA/DX5. It is filed as cell-based. Particulars: 72 h; for GI50: read-out: Absolute GI50; for pIC50: read-out: Absolute IC50. The method, then:
as §1, §2, §3, §4, §5, §6, §7, §8

Test [3] concerns 143B cells. Briefly: CellTiter-Glo cell viability, 143B. It is filed as cell-based. The following applies: 72 h; for GI50: read-out: Absolute GI50; for pIC50: read-out: Absolute IC50. On the procedure: as §1, §2, §3, §4, §5, §6, §7, §8
Test [4] deals with NCI-N87 cells. Briefly: CellTiter-Glo cell viability, NCI-N87. It is filed as cell-based. The following applies: 72 h; for GI50: read-out: Absolute GI50; for pIC50: read-out: Absolute IC50. On the procedure:
as §1, §2, §3, §4, §5, §6, §7, §8

Test [5] concerns MDA-MB-231 cells. Kind of test: CellTiter-Glo cell viability, MDA-MB-231. It counts as cell-based. The following applies: 72 h; for GI50: read-out: Absolute GI50. The method, then: as §1, §2, §3, §4, §5, §6, §7, §8
Test [6] has as its system SNU-5 cells. Kind of test: CellTiter-Glo cell viability, SNU-5. It is filed as cell-based. The following applies: SN1J-5 cells, 72 h; for GI50: read-out: Absolute GI50; for pIC50: read-out: Absolute IC50. On the procedure:
as §1, §2, §3, §4, §5, §6, §7, §8

Test [7] concerns MDA-MB-468 cells. Briefly: CellTiter-Glo cell viability, MDA-MB-468. It is filed as cell-based. The following applies: 72 h; for GI50: read-out: Absolute GI50; for pIC50: read-out: Absolute IC50. On the procedure:
as §1, §2, §3, §4, §5, §6, §7, §8

Test [8] concerns U251 cells. Briefly: CellTiter-Glo cell viability, U251. It is filed as cell-based. Particulars: for GI50: read-out: Absolute GI50; for pIC50: read-out: Absolute IC50. The method, then: as §1, §2, §3, §4, §5, §6, §7, §8
For test [9], the system named is GL261 cells, sub-cutaneous. Briefly: Re-challenge of long-term survivors with sub-cutaneous GL261 cells. It is filed as in vivo, C57BL/6 mice. The following applies: long term survival (LTS) mice after Compound 121 oral therapy, not treated in re-challenge phase. On the procedure: The anti-tumor activity of Compound 121, as a single agent, was studied in the GL261 murine model of human glioblastoma. Murine GL261 glioblastoma cells were injected intra-cranially into syngeneic, immune-competent hosts (C57BL/6). In order for oral therapeutics to be effective, it is required that the therapeutic be able to cross the blood-brain barrier in order to achieve sufficient levels in the brain to exert an anti-tumor effect. Survival was the major endpoint for the study. The mice either succumbed to the tumor or were euthanized based on severity of tumor-dependent morbidity. Mice that achieved long-term survival (>80 days) were re-challenged with a sub-cutaneous injection of GL261 cells to assess the development of a durable immune response to GL261. Mice that underwent the re-challenge phase were not treated with Compound 121.
Re-challenge phase: Mice surviving past 80 days were injected with GL261 cell subcutaneously on Day 93. A control group (naïve C57BL/6 mice, N=5) were also injected with GL261 cells subcutaneously. Tumor volumes were calculated from bidimensional caliper measurements every 3 to 4 days. Further, all mice were administered oral doses of a Bifidobacterium mixture on three separate occasions. The objective of the administration of Bifidobacterium was to transiently modify the intestinal microbiome as a means to influence the immune response to GL261. […]

Setting [10] is: top conc. 10 μM Compound 121, 100 μM cisplatin.
The mark [11] stands for this setting: Homo sapiens, top conc. 10 μM Compound 121, 100 μM cisplatin.

Structures are written as SMILES. pIC50: −log10 of the molar value. Where two headings read alike, the source gives them in different places.

A word on the GI50: it is the concentration giving 50% growth inhibition. For orientation: pIC50 means −log10 of the IC50, conventionally taken in molar units. As a reminder, the % inhibition is the percentage by which the read-out fell short of the control. A lower % inhibition goes with a response near the control. In general, inhibition refers to the share of the control response that was lost under treatment. Lower therefore signals little suppression.

`N.N.[Cl][Pt][Cl]` [Cisplatin, reference compound]: the GI50 in [1] was found to be 1970 nM; in test [2], 1960 nM; in [3], 1020 nM; in test [4] it was 880 nM; in test [5], 18600 nM; in test [6], 2150 nM. Also, the GI50 turned out to be 650 nM in [7] and 3070 nM in [8] (72 h). Moreover, the pIC50 in [1] was 5.64; in test [2] it was 5.66; in [3], 5.97; in test [4], 5.65; in test [6], 5.60; in test [7] it was 6.03. Also, the negative-log IC50 (pIC50) in [8] (72 h) was 5.40. The “% inhibition at top conc.” value worked out at 87.18% in [1] (setting [10]); 99.94% in [2] (setting [10]); 99.94% in test [3] (setting [10]); 90.08% in [4] (setting [10]); 85.68% in [5] (setting [10]); 97.80% in test [6] (setting [10]). Besides, the “% inhibition at top conc.” value was determined as 99.91% in [7] (setting [10]) and 87.70% in [8] (72 h, top conc. 10 μM Compound 121, 100 μM cisplatin).

In the case of `Cc1cc(N2CCOC[C@@H]2C)ccc1-c1ccc(CC(=O)NCc2ccc(F)cc2)nc1` [Compound 121], the GI50 in [1] was found to be 7 nM; in test [2] (Homo sapiens) it was 7 nM; in test [3] (Homo sapiens) it was 8 nM; in test [4] (Homo sapiens), 4 nM; in test [5] (Homo sapiens), 20 nM; in test [6] (Homo sapiens, SNU-5) it was 11 nM. The GI50 in test [7] (Homo sapiens) turned out to be 7 nM; in test [8] (Homo sapiens, U-251, 72 h), 9 nM. The pIC50 in [1] was 8.15; in [2] (Homo sapiens), 8.15; in test [3] (Homo sapiens) it was 8.10; in [4] (Homo sapiens) it was 8.40; in test [5] (Homo sapiens, read-out: Absolute IC50), under 5.00; in test [6] (Homo sapiens, SNU-5), 7.92. The pIC50 was 8.05 in [7] (Homo sapiens) and 8.05 in [8] (Homo sapiens, U-251, 72 h). Besides, the inhibition at 10 µM in test [1] (setting [10]) came to 80.5%; in [2] (setting [11]), 97.8%; in test [3] (setting [11]) it was 97.8%; in test [4] (setting [11]), 49.6%; in test [5] (setting [11]) it was 45.8%; in test [6] (Homo sapiens, SNU-5, top conc. 10 μM Compound 121, 100 μM cisplatin), 96.2%. Further, the inhibition at 10 µM in [7] (setting [11]) was found to be 80%; in [8] (Homo sapiens, U-251, 72 h, top conc. 10 μM Compound 121, 100 μM cisplatin), 75%. For the same compound, the “Tumor growth after sub-cutaneous re-challenge with GL261 cells” value in test [9] was “Tumors failed to grow in both LTS mice”.
